The NIST ThermoML archive (doi:10.1021/je0496140)
± gives the expanded uncertainty stated by the source.

Key:
[1] = xn = mol fraction of the nth substance listed; conditions: 101.33 kPa, Liquid
[2] = 101.33 kPa, Liquid

CCCCCl [1-chlorobutane] + CC(C)CO
[1]
Conditions	mass density [kg/m3]	viscosity [mPa·s]
288.15 K, x2 = 0.0369	888.52 ± 0.37	–
288.15 K, x2 = 0.0769	885.16 ± 0.38	–
288.15 K, x2 = 0.1003	–	0.511 ± 0.007
288.15 K, x2 = 0.1526	878.94 ± 0.38	–
288.15 K, x2 = 0.1993	–	0.568 ± 0.008
288.15 K, x2 = 0.2287	872.74 ± 0.39	–
288.15 K, x2 = 0.2853	868.15 ± 0.4	–
288.15 K, x2 = 0.2979	–	0.654 ± 0.009
288.15 K, x2 = 0.3791	860.52 ± 0.41	–
288.15 K, x2 = 0.3954	–	0.784 ± 0.01
288.15 K, x2 = 0.4421	855.33 ± 0.41	–
288.15 K, x2 = 0.496	–	0.948 ± 0.012
288.15 K, x2 = 0.5564	845.76 ± 0.42	–
288.15 K, x2 = 0.5739	844.3 ± 0.43	–
288.15 K, x2 = 0.5936	–	1.198 ± 0.015
288.15 K, x2 = 0.625	839.91 ± 0.43	–
288.15 K, x2 = 0.6843	834.73 ± 0.44	–
288.15 K, x2 = 0.6894	–	1.57 ± 0.019
288.15 K, x2 = 0.7309	830.64 ± 0.44	–
288.15 K, x2 = 0.7517	828.8 ± 0.44	–
288.15 K, x2 = 0.7555	828.45 ± 0.45	–
288.15 K, x2 = 0.7567	828.35 ± 0.45	–
288.15 K, x2 = 0.7923	–	2.196 ± 0.026
288.15 K, x2 = 0.849	819.9 ± 0.46	–
288.15 K, x2 = 0.8912	–	3.098 ± 0.036
288.15 K, x2 = 0.9196	813.2 ± 0.46	–
288.15 K, x2 = 0.9806	807.26 ± 0.47	–
298.15 K, x2 = 0.1003	–	0.454 ± 0.007
298.15 K, x2 = 0.1993	–	0.499 ± 0.007
298.15 K, x2 = 0.2979	–	0.567 ± 0.008
298.15 K, x2 = 0.3954	–	0.663 ± 0.009
298.15 K, x2 = 0.496	–	0.787 ± 0.01
298.15 K, x2 = 0.5936	–	0.97 ± 0.012
298.15 K, x2 = 0.6894	–	1.23 ± 0.015
298.15 K, x2 = 0.7923	–	1.669 ± 0.02
298.15 K, x2 = 0.8912	–	2.284 ± 0.027
308.15 K, x2 = 0.1003	–	0.408 ± 0.006
308.15 K, x2 = 0.1006	861.12 ± 0.4	–
308.15 K, x2 = 0.1959	853.68 ± 0.41	–
308.15 K, x2 = 0.1993	–	0.445 ± 0.006
308.15 K, x2 = 0.277	847.47 ± 0.42	–
308.15 K, x2 = 0.2979	–	0.497 ± 0.007
308.15 K, x2 = 0.3894	838.94 ± 0.43	–
308.15 K, x2 = 0.3954	–	0.574 ± 0.008
308.15 K, x2 = 0.4895	831.33 ± 0.44	–
308.15 K, x2 = 0.496	–	0.663 ± 0.009
308.15 K, x2 = 0.5863	823.9 ± 0.45	–
308.15 K, x2 = 0.5936	–	0.801 ± 0.01
308.15 K, x2 = 0.6894	–	0.986 ± 0.012
308.15 K, x2 = 0.6914	815.7 ± 0.46	–
308.15 K, x2 = 0.7923	–	1.295 ± 0.016
308.15 K, x2 = 0.7941	807.44 ± 0.47	–
308.15 K, x2 = 0.8912	–	1.724 ± 0.021
308.15 K, x2 = 0.8989	798.78 ± 0.48	–
318.15 K, x2 = 0.0905	850.62 ± 0.42	–
318.15 K, x2 = 0.1003	–	0.369 ± 0.006
318.15 K, x2 = 0.1869	843.28 ± 0.43	–
318.15 K, x2 = 0.1993	–	0.397 ± 0.006
318.15 K, x2 = 0.2712	837.05 ± 0.43	–
318.15 K, x2 = 0.2979	–	0.44 ± 0.006
318.15 K, x2 = 0.3772	829.29 ± 0.44	–
318.15 K, x2 = 0.3954	–	0.498 ± 0.007
318.15 K, x2 = 0.4806	821.73 ± 0.45	–
318.15 K, x2 = 0.496	–	0.567 ± 0.008
318.15 K, x2 = 0.5812	814.29 ± 0.46	–
318.15 K, x2 = 0.5936	–	0.682 ± 0.009
318.15 K, x2 = 0.6819	806.85 ± 0.47	–
318.15 K, x2 = 0.6894	–	0.808 ± 0.01
318.15 K, x2 = 0.7816	799.34 ± 0.48	–
318.15 K, x2 = 0.7923	–	1.025 ± 0.013
318.15 K, x2 = 0.8896	791.03 ± 0.49	–
318.15 K, x2 = 0.8912	–	1.33 ± 0.016

CCC(C)O (configuration not stated) [butan-2-ol]
[2]
Conditions	mass density [kg/m3]	viscosity [mPa·s]
288.15 K	810.72 ± 0.59	4.509 ± 0.055
298.15 K	801.82 ± 0.6	3.035 ± 0.038
308.15 K	794.07 ± 0.6	2.111 ± 0.027
318.15 K	785.15 ± 0.61	1.523 ± 0.02

CCCCCl [1-chlorobutane] + CCCCO
[1]
Conditions	mass density [kg/m3]	viscosity [mPa·s]
288.15 K, x2 = 0.062	886.96 ± 0.37	–
288.15 K, x2 = 0.0949	–	0.509 ± 0.007
288.15 K, x2 = 0.1027	883.98 ± 0.37	–
288.15 K, x2 = 0.1383	881.38 ± 0.37	–
288.15 K, x2 = 0.1964	–	0.57 ± 0.008
288.15 K, x2 = 0.2032	876.67 ± 0.37	–
288.15 K, x2 = 0.2597	872.57 ± 0.37	–
288.15 K, x2 = 0.2859	870.67 ± 0.37	–
288.15 K, x2 = 0.2961	–	0.655 ± 0.009
288.15 K, x2 = 0.3764	864.06 ± 0.38	–
288.15 K, x2 = 0.3949	–	0.774 ± 0.01
288.15 K, x2 = 0.3967	862.58 ± 0.38	–
288.15 K, x2 = 0.4541	858.3 ± 0.38	–
288.15 K, x2 = 0.4822	856.17 ± 0.38	–
288.15 K, x2 = 0.4941	–	0.94 ± 0.012
288.15 K, x2 = 0.5076	854.25 ± 0.38	–
288.15 K, x2 = 0.5466	851.25 ± 0.39	–
288.15 K, x2 = 0.5818	848.53 ± 0.39	–
288.15 K, x2 = 0.5915	–	1.175 ± 0.014
288.15 K, x2 = 0.6332	844.49 ± 0.39	–
288.15 K, x2 = 0.6747	841.19 ± 0.39	–
288.15 K, x2 = 0.6954	–	1.503 ± 0.018
288.15 K, x2 = 0.7342	836.4 ± 0.4	–
288.15 K, x2 = 0.7698	833.49 ± 0.4	–
288.15 K, x2 = 0.794	–	1.934 ± 0.023
288.15 K, x2 = 0.8509	826.62 ± 0.41	–
288.15 K, x2 = 0.892	–	2.529 ± 0.029
288.15 K, x2 = 0.9022	822.13 ± 0.41	–
288.15 K, x2 = 0.9582	817.04 ± 0.42	–
298.15 K, x2 = 0.0949	–	0.452 ± 0.007
298.15 K, x2 = 0.1964	–	0.504 ± 0.007
298.15 K, x2 = 0.2961	–	0.57 ± 0.008
298.15 K, x2 = 0.3949	–	0.661 ± 0.009
298.15 K, x2 = 0.4941	–	0.788 ± 0.01
298.15 K, x2 = 0.5915	–	0.955 ± 0.012
298.15 K, x2 = 0.6954	–	1.204 ± 0.015
298.15 K, x2 = 0.794	–	1.525 ± 0.018
298.15 K, x2 = 0.892	–	1.955 ± 0.023
308.15 K, x2 = 0.0949	–	0.407 ± 0.006
308.15 K, x2 = 0.1056	861.88 ± 0.4	–
308.15 K, x2 = 0.1964	–	0.448 ± 0.006
308.15 K, x2 = 0.1979	855.62 ± 0.4	–
308.15 K, x2 = 0.2842	849.82 ± 0.4	–
308.15 K, x2 = 0.2961	–	0.501 ± 0.007
308.15 K, x2 = 0.3908	842.67 ± 0.4	–
308.15 K, x2 = 0.3949	–	0.576 ± 0.008
308.15 K, x2 = 0.4941	–	0.67 ± 0.009
308.15 K, x2 = 0.4964	835.5 ± 0.41	–
308.15 K, x2 = 0.5913	828.95 ± 0.41	–
308.15 K, x2 = 0.5915	–	0.797 ± 0.01
308.15 K, x2 = 0.6908	821.85 ± 0.42	–
308.15 K, x2 = 0.6954	–	0.984 ± 0.012
308.15 K, x2 = 0.7917	814.48 ± 0.43	–
308.15 K, x2 = 0.794	–	1.226 ± 0.015
308.15 K, x2 = 0.892	–	1.547 ± 0.018
308.15 K, x2 = 0.9003	806.19 ± 0.44	–
318.15 K, x2 = 0.0612	853.78 ± 0.41	–
318.15 K, x2 = 0.0913	851.66 ± 0.41	–
318.15 K, x2 = 0.0949	–	0.367 ± 0.006
318.15 K, x2 = 0.1849	845.48 ± 0.41	–
318.15 K, x2 = 0.1964	–	0.401 ± 0.006
318.15 K, x2 = 0.2759	839.66 ± 0.41	–
318.15 K, x2 = 0.2961	–	0.444 ± 0.006
318.15 K, x2 = 0.3836	832.82 ± 0.42	–
318.15 K, x2 = 0.3949	–	0.503 ± 0.007
318.15 K, x2 = 0.4858	826.26 ± 0.42	–
318.15 K, x2 = 0.4941	–	0.577 ± 0.008
318.15 K, x2 = 0.5859	819.71 ± 0.43	–
318.15 K, x2 = 0.5915	–	0.674 ± 0.009
318.15 K, x2 = 0.6868	812.99 ± 0.43	–
318.15 K, x2 = 0.6954	–	0.816 ± 0.01
318.15 K, x2 = 0.7868	806.09 ± 0.44	–
318.15 K, x2 = 0.794	–	0.993 ± 0.012
318.15 K, x2 = 0.8906	798.56 ± 0.45	–
318.15 K, x2 = 0.892	–	1.238 ± 0.015

CCCCCl [1-chlorobutane]
[2]
Conditions	mass density [kg/m3]	viscosity [mPa·s]
288.15 K	891.87 ± 0.37	0.477 ± 0.007
298.15 K	880.18 ± 0.39	0.429 ± 0.006
303.15 K	875.19 ± 0.39	0.409 ± 0.006
308.15 K	869.64 ± 0.4	0.39 ± 0.006
313.15 K	863.94 ± 0.4	0.372 ± 0.006
318.15 K	858.31 ± 0.41	0.354 ± 0.005
